Reference: ChEMBL document CHEMBL1138312, “Design and synthesis of indole-based peptoids as potent noncompetitive antagonists of transient receptor potential vanilloid 1” (J Med Chem, 2007)
pIC50: −log10 of the molar value.

Tests used:
[1] = biological target: Transient receptor potential cation channel subfamily V member 1 (Rattus norvegicus, UniProt O35433); assay: Blockade of capsaicin-activated rat TRPV1 channel expressed in Xenopus oocytes; format: cell-based, Oocyte
[2] = biological target: Glutamate NMDA receptor; Grin1/Grin2a (Rattus norvegicus, UniProt P35439+Q00959); assay: Blockade of L-glutamate/glycine-activated rat NR1/NR2A NMDA receptor expressed in Xenopus oocytes; format: cell-based, Oocyte
Glutamate NMDA receptor; Grin1/Grin2a, sequence (Q00959 whole entry, other chains not shown): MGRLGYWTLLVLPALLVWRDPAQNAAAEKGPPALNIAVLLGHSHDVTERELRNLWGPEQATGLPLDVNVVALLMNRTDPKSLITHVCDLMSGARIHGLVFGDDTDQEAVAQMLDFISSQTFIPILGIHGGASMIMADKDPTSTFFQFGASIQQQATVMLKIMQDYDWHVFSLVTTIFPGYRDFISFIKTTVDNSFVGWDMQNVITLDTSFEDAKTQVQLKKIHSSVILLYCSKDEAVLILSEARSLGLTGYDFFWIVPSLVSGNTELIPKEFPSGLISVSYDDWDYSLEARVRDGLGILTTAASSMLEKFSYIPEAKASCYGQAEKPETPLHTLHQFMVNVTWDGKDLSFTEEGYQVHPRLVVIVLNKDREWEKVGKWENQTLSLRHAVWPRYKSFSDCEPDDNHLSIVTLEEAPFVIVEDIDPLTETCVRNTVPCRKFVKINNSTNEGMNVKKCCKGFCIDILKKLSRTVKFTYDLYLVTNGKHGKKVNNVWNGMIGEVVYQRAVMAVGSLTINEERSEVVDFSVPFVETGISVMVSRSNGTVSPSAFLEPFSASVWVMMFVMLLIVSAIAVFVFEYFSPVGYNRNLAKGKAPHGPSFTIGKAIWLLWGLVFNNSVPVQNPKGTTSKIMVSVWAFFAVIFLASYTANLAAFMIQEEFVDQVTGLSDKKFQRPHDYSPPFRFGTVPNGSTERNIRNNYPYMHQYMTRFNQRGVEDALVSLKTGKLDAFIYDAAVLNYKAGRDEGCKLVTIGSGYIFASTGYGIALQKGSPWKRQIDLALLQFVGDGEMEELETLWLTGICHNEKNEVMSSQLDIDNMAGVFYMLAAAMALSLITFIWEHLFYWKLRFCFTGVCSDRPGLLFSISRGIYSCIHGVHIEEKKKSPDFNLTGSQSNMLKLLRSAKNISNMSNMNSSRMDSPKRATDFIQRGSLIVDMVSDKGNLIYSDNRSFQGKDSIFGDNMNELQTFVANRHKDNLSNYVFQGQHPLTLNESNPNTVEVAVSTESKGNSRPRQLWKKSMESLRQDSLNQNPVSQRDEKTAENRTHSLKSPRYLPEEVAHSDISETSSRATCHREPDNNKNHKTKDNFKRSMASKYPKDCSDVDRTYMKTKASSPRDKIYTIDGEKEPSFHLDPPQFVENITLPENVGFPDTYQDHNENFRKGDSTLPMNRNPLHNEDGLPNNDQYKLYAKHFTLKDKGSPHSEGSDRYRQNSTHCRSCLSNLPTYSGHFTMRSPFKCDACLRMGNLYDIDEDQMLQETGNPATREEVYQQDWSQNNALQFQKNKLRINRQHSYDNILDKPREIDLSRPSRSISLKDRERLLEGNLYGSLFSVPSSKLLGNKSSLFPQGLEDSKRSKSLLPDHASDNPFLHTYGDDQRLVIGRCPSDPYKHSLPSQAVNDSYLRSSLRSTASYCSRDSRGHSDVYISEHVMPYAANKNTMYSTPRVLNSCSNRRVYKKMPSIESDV

Transient receptor potential cation channel subfamily V member 1, sequence (O35433 whole entry): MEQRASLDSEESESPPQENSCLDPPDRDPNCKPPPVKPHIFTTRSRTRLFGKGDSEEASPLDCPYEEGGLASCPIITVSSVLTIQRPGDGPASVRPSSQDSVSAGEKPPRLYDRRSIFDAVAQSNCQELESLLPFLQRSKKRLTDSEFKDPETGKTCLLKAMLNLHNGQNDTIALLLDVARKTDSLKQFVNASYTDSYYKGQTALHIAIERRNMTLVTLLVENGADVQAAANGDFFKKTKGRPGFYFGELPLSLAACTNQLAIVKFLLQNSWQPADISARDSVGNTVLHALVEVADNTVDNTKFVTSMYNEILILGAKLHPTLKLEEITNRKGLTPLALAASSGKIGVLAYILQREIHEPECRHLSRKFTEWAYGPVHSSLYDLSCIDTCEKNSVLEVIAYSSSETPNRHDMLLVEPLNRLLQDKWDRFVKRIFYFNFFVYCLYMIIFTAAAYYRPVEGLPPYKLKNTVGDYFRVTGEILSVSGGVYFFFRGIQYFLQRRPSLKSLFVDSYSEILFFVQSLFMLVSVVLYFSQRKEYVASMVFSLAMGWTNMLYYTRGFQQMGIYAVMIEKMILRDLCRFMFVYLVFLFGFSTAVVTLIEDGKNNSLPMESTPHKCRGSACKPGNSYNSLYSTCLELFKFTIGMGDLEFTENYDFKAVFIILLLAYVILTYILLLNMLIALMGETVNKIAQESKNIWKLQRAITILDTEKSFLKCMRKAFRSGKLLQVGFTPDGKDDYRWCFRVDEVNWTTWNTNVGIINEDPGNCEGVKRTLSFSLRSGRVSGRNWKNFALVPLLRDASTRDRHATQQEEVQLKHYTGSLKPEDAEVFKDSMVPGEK

Row | Structure (SMILES) | pIC50 [1] | pIC50 [2]
1 | NCCCCCCN(CCc1ccc(Cl)cc1Cl)CC(=O)N(CCc1ccc(Cl)cc1Cl)CC(N)=O | 6.40 | 5.52
2 | N=C(N)NCCC[C@H](N)C(=O)N(CCc1ccc(Cl)cc1Cl)CC(=O)N(CCc1ccc(Cl)cc1Cl)CC(N)=O | 6.15 | 4.82
3 | NC(N)=NCCC[C@H](N)C(=O)N[C@H]1C[C@@H](C(=O)NCCc2ccc(Cl)cc2Cl)N(Cc2ccc(Cl)cc2Cl)C1 | 6.15 | 5.10
4 | N=C(N)NCCC[C@H](N)C(=O)N(CCc1c[nH]c2ccccc12)CC(=O)N(CCc1c[nH]c2ccccc12)CC(N)=O | 5.88 | 3.68
5 | NC(=O)CN(CCc1ccc(Cl)cc1Cl)C(=O)CN(CCc1c[nH]c2ccccc12)C(=O)[C@@H](N)CCCN=C(N)N | 6.28 | 4.77
6 | NC(N)=NCCC[C@H](N)C(=O)N(CCc1c[nH]c2ccccc12)CC(=O)NCCc1c[nH]c2ccccc12 |  | 4.74
7 | N=C(N)NCCC[C@H](N)C(=O)N(CCc1ccc(Cl)cc1Cl)CC(=O)NCCc1ccc(Cl)cc1Cl | 6.77 | 6.10
8 | N=C(N)NCCC[C@H](N)C(=O)N(CCc1ccc(Cl)cc1Cl)CC(=O)N(CCc1c[nH]c2ccccc12)CC(N)=O | 6.74 | 3.78
